# Assays:
# rabbit = conditions: Prenatal developmental toxicity study, new zealand white, Oral, Gavage/Intubation, dose end: 19 GD
# mouse [1] = conditions: Subchronic oral toxicity in rodents, cd1, Feed, dose end: 90 day, group: cholinesterase
# rat [2] = conditions: Subchronic oral toxicity in rodents, sprague dawley, Feed, dose end: 13 week
# mouse [3] = conditions: Carcinogenicity, cd1, Oral, Feed, dose end: 78 week
# dog [4] = conditions: Chronic toxicity, beagle, Oral, Feed, dose end: 52 week, group: cholinesterase
# rat [5] = conditions: Multigenerational reproductive toxicity study, other, Oral, Feed, dose end: 2 generation
# rat [6] = conditions: Combined chronic toxicity/carcinogenicity, sprague dawley, Oral, Feed, dose end: 24 month
# dog [7] = conditions: Subchronic oral toxicity in nonrodent, beagle, Feed, dose end: 13 week
# [8] = group: developmental, systemic / in life observation / body weight / fetal weight
# [9] = group: maternal, systemic / in life observation / body weight / body weight gain + systemic / in life observation / clinical signs / defecation + systemic / …
# [10] = cholinesterase / cholinesterase / cholinesterase / plasma cholinesterase (che) + cholinesterase / cholinesterase / cholinesterase / brain …
# [11] = group: cholinesterase, cholinesterase / cholinesterase / cholinesterase / plasma cholinesterase (che)
# [12] = group: cholinesterase, cholinesterase / cholinesterase / cholinesterase / plasma cholinesterase (che) + cholinesterase / cholinesterase / cholinesterase / brain …
# [13] = group: systemic, systemic / in life observation / body weight / body weight + systemic / in life observation / food consumption / food consumption + systemic…
# [14] = group: systemic, systemic / in life observation / body weight / body weight gain + systemic / in life observation / clinical signs / pneumonia + systemic / …
# [15] = cholinesterase / cholinesterase / cholinesterase / brain cholinesterase (che)
# [16] = cholinesterase / cholinesterase / cholinesterase / brain cholinesterase (che) + cholinesterase / cholinesterase / cholinesterase / …
# [17] = group: cholinesterase, cholinesterase / cholinesterase / cholinesterase / erythrocyte cholinesterase (che) + cholinesterase / cholinesterase / cholinesterase / …
# [18] = group: offspring, systemic / in life observation / body weight / offspring (pup) weight
# [19] = group: parental, systemic / in life observation / body weight / body weight + systemic / in life observation / clinical signs / abnormal feces + systemic / …
# [20] = group: systemic, systemic / in life observation / body weight / body weight + systemic / in life observation / body weight / body weight gain + systemic / in…
# [21] = group: systemic, systemic / clinical chemistry / protein / protein + systemic / in life observation / clinical signs / emaciation + systemic / in life …
structure (smiles),measurement,setting,value
CCOC(=O)CSc1nc(C(C)(C)C)nn1C(=O)N(C)C [Triazamate],LEL,rabbit; [8],0.5 mg/kg/day
same,LOAEL,rabbit; [8],> 10 mg/kg/day
same,NEL,rabbit; [8],0.05 mg/kg/day
same,NOAEL,rabbit; [8],≥ 10 mg/kg/day
same,LEL,rabbit; [9],0.5 mg/kg/day
same,LOAEL,rabbit; [9],0.5 mg/kg/day
same,NEL,rabbit; [9],0.05 mg/kg/day
same,NOAEL,rabbit; [9],0.05 mg/kg/day
same,LOAEL,mouse [1]; cholinesterase / cholinesterase / cholinesterase / plasma cholinesterase (che),4.55 mg/kg/day
same,NEL,mouse [1]; [10],0.336 mg/kg/day
same,NOAEL,mouse [1]; [10],0.336 mg/kg/day
same,LEL,mouse [1]; cholinesterase / cholinesterase / cholinesterase / plasma cholinesterase (che) + cholinesterase / cholinesterase / cholinesterase / …,4.55 mg/kg/day
same,LEL,rat [2]; [11],31 mg/kg/day
same,LOAEL,rat [2]; [11],31 mg/kg/day
same,NEL,rat [2]; [12],3 mg/kg/day
same,NOAEL,rat [2]; [12],3 mg/kg/day
same,LOAEL,"rat [2]; group: systemic, systemic / in life observation / body weight / body weight + systemic / in life observation / food consumption / food consumption",93 mg/kg/day
same,LEL,rat [2]; [13],93 mg/kg/day
same,NEL,rat [2]; [13],31 mg/kg/day
same,NOAEL,rat [2]; [13],31 mg/kg/day
same,LEL,mouse [3]; [11],6.7 mg/kg/day
same,LOAEL,mouse [3]; [11],6.7 mg/kg/day
same,NEL,mouse [3]; [12],0.13 mg/kg/day
same,NOAEL,mouse [3]; [12],0.13 mg/kg/day
same,LOAEL,"mouse [3]; group: systemic, systemic / in life observation / body weight / body weight gain + systemic / in life observation / clinical signs / pneumonia",210 mg/kg/day
same,LEL,mouse [3]; [14],210 mg/kg/day
same,NEL,mouse [3]; [14],6.7 mg/kg/day
same,NOAEL,mouse [3]; [14],6.7 mg/kg/day
same,LEL,dog [4]; [15],0.0232 mg/kg/day
same,LOAEL,dog [4]; [15],0.0232 mg/kg/day
same,NEL,dog [4]; [16],0.0172 mg/kg/day
same,NOAEL,dog [4]; [16],0.0172 mg/kg/day
same,LEL,rat [5]; [17],17 mg/kg/day
same,LOAEL,rat [5]; [17],17 mg/kg/day
same,NEL,rat [5]; [17],0.7 mg/kg/day
same,NOAEL,rat [5]; [17],0.7 mg/kg/day
same,LEL,rat [5]; [18],101 mg/kg/day
same,LOAEL,rat [5]; [18],101 mg/kg/day
same,NEL,rat [5]; [18],17 mg/kg/day
same,NOAEL,rat [5]; [18],17 mg/kg/day
same,LEL,rat [5]; [19],101 mg/kg/day
same,LOAEL,rat [5]; [19],> 101 mg/kg/day
same,NEL,rat [5]; [19],17 mg/kg/day
same,NOAEL,rat [5]; [19],≥ 101 mg/kg/day
same,LEL,rat [6]; [17],11.5 mg/kg/day
same,LOAEL,rat [6]; [17],11.5 mg/kg/day
same,NEL,rat [6]; [17],0.45 mg/kg/day
same,NOAEL,rat [6]; [17],0.45 mg/kg/day
same,LEL,rat [6]; [20],59.2 mg/kg/day
same,LOAEL,rat [6]; [20],> 59.2 mg/kg/day
same,NEL,rat [6]; [20],11.5 mg/kg/day
same,NOAEL,rat [6]; [20],≥ 59.2 mg/kg/day
same,LEL,dog [7]; [11],0.03 mg/kg/day
same,LOAEL,dog [7]; [11],0.03 mg/kg/day
same,NEL,dog [7]; [11],< 0.03 mg/kg/day
same,NOAEL,dog [7]; [11],< 0.03 mg/kg/day
same,LOAEL,dog [7]; [21],3.11 mg/kg/day
same,NOAEL,dog [7]; [21],0.31 mg/kg/day
same,NEL,"dog [7]; group: systemic, systemic / in life observation / clinical signs / distended abdomens + systemic / in life observation / clinical signs / vomitting + …",0.03 mg/kg/day
same,LEL,"dog [7]; group: systemic, systemic / in life observation / clinical signs / vomitting",0.31 mg/kg/day

# Reference: EPA's ToxRefDB 2
